Kd data for eight compounds are collected here from BindingDB's records for doi:10.1016/j.bmcl.2009.01.098 (Glaxosmithkline, 2009).

pKd: −log10 of the molar value.

The target in the assay is Muscarinic acetylcholine receptor M3 (Homo sapiens, UniProt P20309). The experiment in a line: Antagonist activity at human recombinant muscarinic M3 receptor expressed in CHO cells assessed as inhibition of acetylcholine-induced calcium mobilization by FLIPR based single concentration kinetic assay. For orientation: Calcium assays in cells follow changes in intracellular calcium, usually with a dye or a luminescent sensor.
Sequence of Muscarinic acetylcholine receptor M3 (P20309 whole entry): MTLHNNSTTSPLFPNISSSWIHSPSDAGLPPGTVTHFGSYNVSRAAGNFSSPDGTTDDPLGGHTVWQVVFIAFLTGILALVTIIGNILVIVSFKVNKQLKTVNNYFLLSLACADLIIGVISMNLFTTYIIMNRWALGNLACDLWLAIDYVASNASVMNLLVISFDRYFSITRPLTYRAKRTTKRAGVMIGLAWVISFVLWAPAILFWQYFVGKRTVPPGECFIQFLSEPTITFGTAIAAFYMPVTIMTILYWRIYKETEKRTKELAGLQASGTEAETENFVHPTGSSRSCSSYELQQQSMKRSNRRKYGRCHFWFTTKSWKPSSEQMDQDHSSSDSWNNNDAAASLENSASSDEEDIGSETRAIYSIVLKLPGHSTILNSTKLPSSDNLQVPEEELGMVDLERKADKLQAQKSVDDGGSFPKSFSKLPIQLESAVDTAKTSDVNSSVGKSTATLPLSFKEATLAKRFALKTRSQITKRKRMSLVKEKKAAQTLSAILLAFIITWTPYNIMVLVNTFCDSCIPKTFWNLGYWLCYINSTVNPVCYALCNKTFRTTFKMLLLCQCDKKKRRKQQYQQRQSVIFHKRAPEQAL

Consider `CC1CN(Cc2cccc(-c3cc(CNC(=O)c4cccc(CN5CCOCC5)c4)ccc3F)c2)CCN1` (stereo not drawn), for which the pKd was 9.90.
Under `CC1CN(Cc2cccc(-c3cc(CNC(=O)c4cccc(CN5CCCN(C)CC5)c4)ccc3F)c2)CCN1` (stereo not drawn) stands 9.60.
With `CC1CN(Cc2cccc(-c3cc(CNC(=O)c4cccc(CN(C)C)c4)ccc3F)c2)CCN1` (stereo not drawn) the figure was 8.50; with `CC1CN(Cc2cccc(-c3cc(CNC(=O)c4cccc(CN5CCN(C)CC5)c4)ccc3F)c2)CCN1` (stereo not drawn), 10.50; with `CC1CN(Cc2cccc(-c3cc(CNC(=O)c4cccc(CN5CCCCC5)c4)ccc3F)c2)CCN1` (stereo not drawn), 9.20.
With `CC1CN(Cc2cccc(-c3cc(CNC(=O)c4cccc(CN(C)CCCN(C)C)c4)ccc3F)c2)CCN1` (stereo not drawn), the pKd was 9.70.
On to `CC1CN(Cc2cccc(-c3cc(CNC(=O)c4cccc(CN5CCN(CCCO)CC5)c4)ccc3F)c2)CCN1` (stereo not drawn), for which the pKd was 10.20.
As for `CC1CN(Cc2cccc(-c3cc(CNC(=O)c4cccc(CN5CCN(C=O)CC5)c4)ccc3F)c2)CCN1` (stereo not drawn), the pKd was 10.10.

For orientation: pKd means the Kd on a negative log10 scale, so that one unit is a factor of ten.
